Reference: US10845367B2, “Modified multispanning membrane polypeptides and methods of use thereof to screen therapeutic agents” (Abilita Bio, Inc., priority 2016, dated 2020)
Converted amounts (≈) assume the structure as drawn. Where two headings read alike, the source gives them in different places.

B1: EMP012: Modified GPR55 receptor (Enabled Membrane Protein), SEQ ID NO: 2, mutated relative to wild-type GPR55; used as cDNA and purified protein (protein, listed as Homo sapiens)
chain: MSQQNTSGNCLFDGMNELMKTLQFAVHIPTFVLGLLLNLLAIHGFSTFLKNRWPDYAATSIYMINLAVFDLLLVLSLPFKIVLSQVQSPFPSLCTLVECLYFVSMYGSVFTICFISMDRFLAIRYPLLVSHLRSPRKIFGICCTIWVLVWTGSIPIYSFHGKVEKYMCFHNMSDDTWSAKVFFPLEVFGFLLPMGIMGFCCSRSIHILLGRRDHTQDWVQQKACIYSIAASLAVFVVSFLPVHLGFFLQFLVRNSFIVECRAKQSISFFLQLSKCFSNVNCCLDVFCYYFVIKEFRMNIRAHRPSRVQLVLQDTTISRGAG

Tests used:
[1] = test system: E. coli strains (e.g. BL21 or DH10beta); test: Growth of E. coli on LB medium with varying antibiotic concentrations (MIC); format: cell-based; conditions: for Antibiotic concentration to which resistance is conferred: E. coli transformed with mutated GPR55 clones; for MIC: Escherichia coli
[2] = target: T1, WT-GPR55 (Homo sapiens, UniProt Q9Y2T6); test: Genetic immunization of mice with protein boost, FACS analysis of sera on transfected cells; format: in vivo; conditions: C57BL6 mice; 50 μg cDNA in NanoTaxi, 2 DNA boosts, 1 boost with 50 μg purified protein in IFA; polyclonal sera by FACS
T1 construct: expressed in transfected cells
T1 sequence (Q9Y2T6 with tags, fused parts or gaps): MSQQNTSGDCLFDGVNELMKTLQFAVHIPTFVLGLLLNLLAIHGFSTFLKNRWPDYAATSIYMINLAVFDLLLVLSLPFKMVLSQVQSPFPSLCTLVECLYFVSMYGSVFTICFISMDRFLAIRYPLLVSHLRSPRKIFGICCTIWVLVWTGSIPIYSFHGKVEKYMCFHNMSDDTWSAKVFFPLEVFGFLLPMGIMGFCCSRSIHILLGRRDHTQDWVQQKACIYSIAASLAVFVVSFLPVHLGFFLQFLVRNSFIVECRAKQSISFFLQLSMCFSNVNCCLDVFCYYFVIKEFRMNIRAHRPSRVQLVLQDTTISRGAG
Protocol: The genetic immunization work was performed using NanoTaxi® at In-Cell-Art (Nantes, France). NanoTaxi® is a DNA delivery system optimized for genetic immunization where the delivered genetic material is formulated with a mixture of different chemical families of lipids and polymers.
The cDNA corresponding to the EMP012 of the GPR55 receptor was cloned into a pCMV-based vector and cell surface expression was confirmed via transient transfection of HEK293T and HeLa cells prior to immunogen administration.
C57BL6 mice were immunized with 50 μg EMP012 cDNA construct formulated into the NanoTaxi® for the primary challenge, followed by 2 boosts of 50 μg using the same NanoTaxi®-based formulation at two-weekly intervals, followed by 1 boost using 50 μg purified EMP012 protein in IFA adjuvant. In some instances, boosting was carried out for the in-vivo affinity maturation by somatic hypermutation of the primary antibody response. The level of immune response was assessed at regular intervals by FACS analysis using Hela cells transfected with an unrelated GPCR (left panel) or WT-GPR55 (right panel) (FIG. 7).

[3] = E. coli containing a plasmid encoding wild-type human GPR55
[4] = E. coli expressing certain constructs containing NTSR1 (rat, aa 43-424), read-out: Apparent MIC

Molecule | Antibiotic concentration to which resistance is conferred [1] [mg/L] | MIC [1, 3] [µg/mL] | MIC [1, 4] [µg/mL] | MIC ([1]; untransformed cells, LB medium) [µg/mL] | Immune response against WT-GPR55 [2]
CC1(C)S[C@@H]2[C@H](NC(=O)C(C(=O)O)c3ccccc3)C(=O)N2[C@H]1C(=O)O (some centres unmarked) [carbenicillin] | > 80 | ~40 (≈ 106 µM) | > 75 | – | –
NC[C@H]1O[C@H](O[C@H]2[C@H](O)[C@@H](O[C@H]3O[C@H](CO)[C@@H](O)[C@H](N)[C@H]3O)[C@H](N)C[C@@H]2N)[C@H](O)[C@@H](O)[C@@H]1O [kanamycin] | > 50 | ~25 (≈ 51.6 µM) | > 50 | ~10 (≈ 20.6 µM) | –
B1 | – | – | – | – | robust and specific immune response
